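Exposure lasted 48 hours, with cells grown in 96-well plates and compounds tested at five concentrations. GI50: concentration for 50% inhibition of growth. TGI is the concentration that stops growth completely.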
How the values were obtained:
Assay in all cases: inhibition of tumour cell growth, NCI panel, 48 h; in the data active = GI50 below about 0.43 µM; inactive = the rest
[1] = test system: SK-MEL-2 melanoma
[2] = test system: PC-3 prostate
[3] = test system: A549 NSCLC
[4] = test system: HL-60(TB) leukemia
[5] = test system: MALME-3M melanoma
[6] = test system: SF-295 CNS
[7] = test system: SN12C renal
[8] = test system: SF-268 CNS
[9] = test system: HS 578T breast
[10] = test system: SF-539 CNS
[11] = test system: LOX IMVI melanoma
[12] = test system: SR leukemia
[13] = test system: OVCAR-8 ovarian
[14] = test system: SK-MEL-28 melanoma
[15] = test system: HT29 colon
[16] = test system: HOP-92 NSCLC
[17] = test system: A498 renal
[18] = test system: SK-MEL-5 melanoma
[19] = test system: UACC-62 melanoma
[20] = test system: DU-145 prostate
[21] = test system: NCI-H522 lung
[22] = test system: MDA-MB-231 breast
[23] = test system: HCC-2998 colon
[24] = test system: HCT-15 colon
[25] = test system: NCI-H460 lung
[26] = test system: MDA-MB-435
[27] = test system: SNB-75 CNS
[28] = test system: CCRF-CEM leukemia
[29] = test system: MCF7 breast

COc1ccc(C(=O)Cn2c(C(=O)c3ccc(Cl)cc3)nc3ccccc32)cc1
> 100 µM: TGI [1] | TGI [2] | TGI [3] | TGI [5] | TGI [6] | TGI [7] | TGI [8] | TGI [10] | TGI [11] | TGI [13] | TGI [14] | TGI [15] | TGI [16] | TGI [17] | TGI [18] | TGI [19] | TGI [20] | TGI [21] | TGI [22] | TGI [23] | TGI [24] | TGI [25] | TGI [27] | TGI [28]
inactive: GI50 [1] > 32.7 µM | GI50 [2] 21.2 µM | GI50 [3] 29.8 µM | GI50 [4] 3.11 µM | GI50 [5] > 56.3 µM | GI50 [6] 22.8 µM | GI50 [7] 97.8 µM | GI50 [8] > 24.4 µM | GI50 [9] 3.29 µM | GI50 [10] 99.3 µM | GI50 [11] 17.5 µM | GI50 [12] 2.2 µM | GI50 [13] > 100 µM | GI50 [14] > 22.4 µM | GI50 [15] 7.58 µM | GI50 [16] > 100 µM | GI50 [17] 14.3 µM | GI50 [18] 5.95 µM | GI50 [19] > 28.4 µM | GI50 [20] > 100 µM | GI50 [21] 10.3 µM | GI50 [22] 24.8 µM | GI50 [23] 6.55 µM | GI50 [24] 3.88 µM | GI50 [25] 25.2 µM | GI50 [26] 2.23 µM | GI50 [27] 20.9 µM | GI50 [28] 3.02 µM | GI50 [29] 3 µM
> 23.7 µM: TGI [9]
> 53.3 µM: TGI [4]
> 23.2 µM: TGI [26]
> 22.4 µM: TGI [12]

— PubChem BioAssay (NCI)
